Measured values from USRE47689E1, “Compounds for treating spinal muscular atrophy” (PTC Therapeutics, Inc., priority 2011, dated 2019).
Structures can show the parent of a compound that is named as a salt. Where two headings read alike, the source gives them in different places.

Assays:
[1] = test system: Smn protein; test: Smn protein assay in cultured cells (SMN HTRF); type: cell-based, human; settings: for EC1.5x (concentration giving 1.5-fold Smn protein increase): SMA Type 1 patient fibroblast cells (GM03813), 7-point concentration curve, SMN HTRF, concentration producing 1.5 times Smn protein vs DMSO vehicle control, read-out: EC1.5x for Smn protein expression
How it was run: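 Lysates in RIPA with protease inhibitors are incubated overnight at room temperature with HTRF anti-SMN antibodies. EC1.5x is derived from fold increase in ΔF over vehicle.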

[2] = test system: SMN2 minigene (full length SMN2 minigene mRNA containing SMN2 exon 7); test: SMN2 minigene mRNA splicing RT-qPCR assay in cultured cells; type: cell-based, human; settings: for EC (1.5-fold): Homo sapiens, HEK293-H, read-out: EC1.5x for production of full length SMN2 mRNA
How it was run: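 Read-out: full-length (exon 7-included) SMN2 minigene mRNA by multiplex RT-qPCR with GAPDH, efficiency-corrected (1+E)^−Ct, GAPDH-normalized and divided by vehicle. Stably transfected HEK293H cells, 24 h compound exposure, duplicates per concentration. Value is EC1.5x, reported as star ranges.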

[3] = SMA patient fibroblast cells, 48 hours, 7-point concentration data, fold increase relative to vehicle control (SMN HTRF)
[4] = HEK293H cells stably transfected with SMN2-A minigene, 24 hours, 7-point concentration curve, 1.5-fold relative to vehicle-treated cells

Compound	maximum fold (Fold) increase of Smn protein [1, 3]	EC (1.5-fold) [2, 4] [µM]	EC1.5x (concentration giving 1.5-fold Smn protein increase) ([1]; 48 hours) [nM]	maximum fold (Fold) increase of Smn protein [1]	EC (1.5-fold) ([2]; 24 h) [µM]	EC1.5x for production of full length SMN2 mRNA [2, 4]
O=c1oc2cc(N3CCNCC3)ccc2cc1-c1nc2c(Cl)cccc2s1 [Cpd 5, 3-(4-chloro-1,3-benzothiazol-2-yl)-7-(piperazin-1-yl)-2H-chromen-2-one hydrochloride]	* (maximum fold increase of ≤1.2)	0.3 to 1	–	–	–	–
Cc1cn2cc(-c3cc4ccc(N5CCC(O)CC5)cc4oc3=O)nc2c(C)n1 [Compound 975, 3-(6,8-dimethylimidazo[1,2-a]pyrazin-2-yl)-7-(4-hydroxypiperidin-1-yl)-2H-chromen-2-one]	*** (fold increase between >1.35 and ≤1.5)	0.3 to 1	–	–	–	–
CCN1CCN(c2ccc3cc(-c4cn5cc(C)nc(C)c5n4)c(=O)oc3c2)C[C@@H]1C(C)C [Compound 810, 3-(6,8-dimethylimidazo[1,2-a]pyrazin-2-yl)-7-[(3S)-4-ethyl-3-(propan-2-yl)piperazin-1-yl]-2H-chromen-2-one]	**** (fold increase between >1.5 and ≤1.65)	0.3 to 1	1000 to 3000	–	–	–
CC(=O)O.Cc1ccn2cc(-c3cc4ccc(N(C)C5CCN(Cc6ccccc6)C5)cc4oc3=O)nc2n1 (stereo not shown) [Compound 377, 7-[(1-benzylpyrrolidin-3-yl)(methyl)amino]-3-(7-methylimidazo[1,2-a]pyrimidin-2-yl)-2H-chromen-2-one acetate]	* (maximum fold increase of ≤1.2)	0.3 to 1	–	–	–	–
Cc1cc2cc(-c3cc4ccc(N5CCN(CC6CC6)CC5)cc4oc3=O)oc2c(C)n1 [Compound 816, 7-[4-(cyclopropylmethyl)piperazin-1-yl]-3-(5,7-dimethylfuro[2,3-c]pyridin-2-yl)-2H-chromen-2-one]	**** (fold increase between >1.5 and ≤1.65)	< 0.1	300 to 1000	–	–	–
Cc1nc2ccc(-c3cc4ccc(N5CCN(C)[C@@H](C)C5)cc4oc3=O)cc2s1 [Compound 776, 7-[(3S)-3,4-dimethylpiperazin-1-yl]-3-(2-methyl-1,3-benzothiazol-6-yl)-2H-chromen-2-one acetate (2:1)]	** (fold increase between >1.2 and ≤1.35)	1 to 3	–	–	–	–
Cc1cn2cc(-c3cc4ccc(N5CC6(CC(N)C6)C5)cc4oc3=O)nc2c(C)n1 [Compound 977, 7-(6-amino-2-azaspiro[3.3]hept-2-yl)-3-(6,8-dimethylimidazo[1,2-a]pyrazin-2-yl)-2H-chromen-2-one]	* (maximum fold increase of ≤1.2)	1 to 3	–	–	–	–
COCCN1CCN(c2ccc3cc(-c4cc5c(C)nc(C)cc5s4)c(=O)oc3c2)CC1 [Compound 820, 3-(4,6-dimethylthieno[3,2-c]pyridin-2-yl)-7-[4-(2-methoxyethyl)piperazin-1-yl]-2H-chromen-2-one]	** (fold increase between >1.2 and ≤1.35)	0.3 to 1	–	–	–	–
O=c1oc2cc(OC3CCNC3)ccc2cc1-c1cn2cccnc2n1 (stereo in doubt) [Cpd 321, 3-(imidazo[1,2-a]pyrimidin-2-yl)-7-[(3R)-pyrrolidin-3-yloxy]-2H-chromen-2-one hydrochloride (1:2)]	–	–	–	** (key: *: maximum fold increase of ≤1.2; **: fold increase between >1.2 and ≤1.35; ***: fold increase between >1.35 and ≤1.5; ****: fold increase between >1.5 and ≤1.65; *****: fold increase >1.65)	1 to 3	–
Cc1cn2cc(-c3cc4ccc(N5CCNCC5)cc4oc3=O)nc2c(C)n1 [Compound 515, 3-(6,8-dimethylimidazo[1,2-a]pyrazin-2-yl)-7-(piperazin-1-yl)-2H-chromen-2-one]	***** (fold increase >1.65)	< 0.1	< 300	–	–	–
7-(1,4-diazepan-1-yl)-3-(6-methylimidazo[1,2-a]pyrazin-2-yl)-2H-chromen-2-one [Compound 477]	***** (fold increase >1.65)	–	< 300	–	–	***** (EC1.5x≤0.1 μM)
CC(C)(C)OC(=O)N[C@H]1CCN(c2ccc3cc(-c4cn5cc(Cl)ccc5n4)c(=O)oc3c2)C1 [Compound 106, tert-butyl {(3S)-1-[3-(6-chloroimidazo[1,2-a]pyridin-2-yl)-2-oxo-2H-chromen-7-yl]pyrrolidin-3-yl}carbamate]	* (maximum fold increase of ≤1.2)	3 to 30	–	–	–	–
C[C@H]1CN(c2ccc3cc(-c4ccc5nccn5c4)c(=O)oc3c2)CCN1 [Compound 981, 3-(imidazo[1,2-a]pyridin-6-yl)-7-[(3S)-3-methylpiperazin-1-yl]-2H-chromen-2-one]	**** (fold increase between >1.5 and ≤1.65)	0.1 to 0.3	1000 to 3000	–	–	–
O=c1oc2cc(N3CCNCC3)ccc2cc1-c1nc2ccccc2s1 [Cpd 4, 3-(1,3-benzothiazol-2-yl)-7-(piperazin-1-yl)-2H-chromen-2-one hydrochloride]	* (maximum fold increase of ≤1.2)	1 to 3	–	–	–	–
Cc1cn2cc(-c3cc4ccc(N5C[C@H]6CCCN(C)[C@H]6C5)cc4oc3=O)nc2c(C)n1 [Compound 782, 3-(6,8-dimethylimidazo[1,2-a]pyrazin-2-yl)-7-[(4aR,7aR)-1-methyloctahydro-6H-pyrrolo[3,4-b]pyridin-6-yl]-2H-chromen-2-one]	**** (fold increase between >1.5 and ≤1.65)	–	< 300	–	–	***** (EC1.5x≤0.1 μM)
C[C@H]1CN(c2ccc3cc(-c4cc5ccccn5c4)c(=O)oc3c2)CCN1 [Compound 565, 3-(indolizin-2-yl)-7-[(3S)-3-methylpiperazin-1-yl]-2H-chromen-2-one]	* (maximum fold increase of ≤1.2)	1 to 3	–	–	–	–
Cc1cn2cc(-c3cc4ccc(N5CCN(C6CC6)CC5)cc4oc3=O)cc2c(C)n1 [Compound 752, 7-(4-cyclopropylpiperazin-1-yl)-3-(1,3-dimethylpyrrolo[1,2-a]pyrazin-7-yl)-2H-chromen-2-one]	**** (fold increase between >1.5 and ≤1.65)	< 0.1	300 to 1000	–	–	–
Cc1nc2ccc(-c3cc4ccc(N5CCN[C@@H](C)C5)cc4oc3=O)cc2s1 [Compound 770, 3-(2-methyl-1,3-benzothiazol-6-yl)-7-[(3S)-3-methylpiperazin-1-yl]-2H-chromen-2-one]	**** (fold increase between >1.5 and ≤1.65)	< 0.1	< 300	–	–	–
O=c1oc2cc(OC[C@@H]3CCCN3)ccc2cc1-c1nc2ccccc2s1 [Compound 56, 3-(1,3-benzothiazol-2-yl)-7-[(2S)-pyrrolidin-2-ylmethoxy]-2H-chromen-2-one]	* (maximum fold increase of ≤1.2)	3 to 30	–	–	–	–
CC(C)c1nccc(-c2cc3ccc(N4CCNCC4)cc3oc2=O)n1.Cl [Compound 279, 7-(piperazin-1-yl)-3-[2-(propan-2-yl)pyrimidin-4-yl]-2H-chromen-2-one hydrochloride]	* (maximum fold increase of ≤1.2)	1 to 3	–	–	–	–
Cc1cn2cc(-c3cc4ccc(N5CCC(CNC(C)C)CC5)cc4oc3=O)cc2c(C)n1 [Compound 790, 3-(1,3-dimethylpyrrolo[1,2-a]pyrazin-7-yl)-7-{4-[(propan-2-ylamino)methyl]piperidin-1-yl}-2H-chromen-2-one]	** (fold increase between >1.2 and ≤1.35)	0.3 to 1	–	–	–	–
Cc1cn2cc(-c3cc4ccc(N5CCNCC5)cc4oc3=O)ccc2n1 [Compound 677, 3-(2-methylimidazo[1,2-a]pyridin-6-yl)-7-(piperazin-1-yl)-2H-chromen-2-one]	**** (fold increase between >1.5 and ≤1.65)	< 0.1	< 300	–	–	–
CC[C@H]1CN(c2ccc3cc(-c4cn5cc(C)nc(C)c5n4)c(=O)oc3c2)CCN1 [Compound 772, 3-(6,8-dimethylimidazo[1,2-a]pyrazin-2-yl)-7-[(3S)-3-ethylpiperazin-1-yl]-2H-chromen-2-one]	***** (fold increase >1.65)	< 0.1	< 300	–	–	–
CSc1nccn2cc(-c3cc4ccc(N5CCN(C)CC5)cc4oc3=O)nc12 [Compound 399, 7-(4-methylpiperazin-1-yl)-3-[8-(methylsulfanyl)imidazo[1,2-a]pyrazin-2-yl]-2H-chromen-2-one]	* (maximum fold increase of ≤1.2)	3 to 30	–	–	–	–
CCCN1CCC(c2ccc3cc(-c4cn5cc(C)ncc5n4)c(=O)oc3c2)CC1 [Compound 887, 3-(6-methylimidazo[1,2-a]pyrazin-2-yl)-7-(1-propylpiperidin-4-yl)-2H-chromen-2-one]	***** (fold increase >1.65)	< 0.1	< 300	–	–	–
